Laboratory results as given in patent EP4745137A1 (Gluetacs Therapeutics (Shanghai) Co., Ltd., priority 2023, dated 2025).
pIC50: −log10 of the molar value.

Experiments:
CK1α = molecular target: T1, CK1α (Homo sapiens, UniProt P48729+Q96SW2); experiment: Western-blot assay of substrate protein degradation in hPBMCs, CK1α; assay type: cell-based; settings: 24 hours of compound treatment, compounds tested at 50 nM and 500 nM (concentration of the table not stated)
T1 construct: endogenous in cells; host or cells: hPBMCs (Milecell Biotechnologies)
T1 sequence (P48729 whole entry): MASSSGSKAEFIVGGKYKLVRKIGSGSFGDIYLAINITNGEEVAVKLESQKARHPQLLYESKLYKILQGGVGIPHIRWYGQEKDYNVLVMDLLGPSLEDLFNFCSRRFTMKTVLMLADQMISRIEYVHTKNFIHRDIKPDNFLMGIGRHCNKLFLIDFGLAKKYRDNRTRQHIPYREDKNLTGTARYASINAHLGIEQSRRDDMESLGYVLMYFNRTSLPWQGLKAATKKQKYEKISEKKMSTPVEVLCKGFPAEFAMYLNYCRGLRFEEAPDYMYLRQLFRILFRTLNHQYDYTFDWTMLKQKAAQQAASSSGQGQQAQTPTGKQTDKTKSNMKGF
T1 sequence (Q96SW2 whole entry): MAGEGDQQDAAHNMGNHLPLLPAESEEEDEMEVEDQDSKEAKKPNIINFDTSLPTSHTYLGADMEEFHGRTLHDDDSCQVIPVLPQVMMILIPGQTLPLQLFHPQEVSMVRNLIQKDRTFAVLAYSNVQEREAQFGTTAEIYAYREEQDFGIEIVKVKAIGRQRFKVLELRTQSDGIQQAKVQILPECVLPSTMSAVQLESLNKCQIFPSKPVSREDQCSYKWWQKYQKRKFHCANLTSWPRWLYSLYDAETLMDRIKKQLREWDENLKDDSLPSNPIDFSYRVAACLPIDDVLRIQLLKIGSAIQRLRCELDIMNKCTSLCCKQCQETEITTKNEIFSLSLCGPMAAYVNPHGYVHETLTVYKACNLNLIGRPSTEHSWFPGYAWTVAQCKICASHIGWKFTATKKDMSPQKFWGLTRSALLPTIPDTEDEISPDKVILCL
T1 sequence (Q16531 whole entry partner): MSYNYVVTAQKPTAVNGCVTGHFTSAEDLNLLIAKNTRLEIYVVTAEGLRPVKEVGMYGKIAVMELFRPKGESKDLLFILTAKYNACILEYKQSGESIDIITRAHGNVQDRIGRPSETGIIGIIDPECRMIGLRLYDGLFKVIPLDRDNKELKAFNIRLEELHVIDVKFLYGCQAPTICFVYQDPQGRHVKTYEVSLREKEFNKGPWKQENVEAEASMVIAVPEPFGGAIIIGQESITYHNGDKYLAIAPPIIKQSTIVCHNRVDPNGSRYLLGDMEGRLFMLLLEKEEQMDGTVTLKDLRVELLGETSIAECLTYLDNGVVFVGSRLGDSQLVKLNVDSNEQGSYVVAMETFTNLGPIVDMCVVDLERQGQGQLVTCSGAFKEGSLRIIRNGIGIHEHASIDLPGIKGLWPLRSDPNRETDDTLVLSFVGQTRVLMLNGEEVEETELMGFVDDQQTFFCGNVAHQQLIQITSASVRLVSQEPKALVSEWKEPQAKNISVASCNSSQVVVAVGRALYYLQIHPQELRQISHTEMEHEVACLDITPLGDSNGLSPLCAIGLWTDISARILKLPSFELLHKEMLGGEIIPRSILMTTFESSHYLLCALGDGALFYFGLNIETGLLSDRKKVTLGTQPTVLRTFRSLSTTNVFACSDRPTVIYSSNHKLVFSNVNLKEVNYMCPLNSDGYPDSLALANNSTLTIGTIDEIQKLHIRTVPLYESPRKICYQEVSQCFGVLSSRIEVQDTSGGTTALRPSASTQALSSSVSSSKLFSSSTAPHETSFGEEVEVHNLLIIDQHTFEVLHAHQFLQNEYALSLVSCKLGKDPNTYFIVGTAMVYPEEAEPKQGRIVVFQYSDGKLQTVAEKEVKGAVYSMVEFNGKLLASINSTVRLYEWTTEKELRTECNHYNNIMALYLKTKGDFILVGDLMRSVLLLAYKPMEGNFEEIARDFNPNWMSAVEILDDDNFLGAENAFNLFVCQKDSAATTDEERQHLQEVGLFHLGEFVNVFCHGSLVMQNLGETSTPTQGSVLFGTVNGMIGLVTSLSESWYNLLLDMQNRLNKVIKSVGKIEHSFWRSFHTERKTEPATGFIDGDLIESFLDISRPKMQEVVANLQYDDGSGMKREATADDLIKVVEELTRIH

[1] = system: Human breast cancer cells (MDA-MB-231); experiment: Tumor cell proliferation inhibition (CellTiter-Meiluncell Luminescent Cell Viability Assay), MDA-MB-231; settings: MDA-MB-231, 96 h, read-out: inhibitory activity (IC50, nM) against tumor cells proliferation, MDA-MB-231
SR = experiment: Tumor cell proliferation inhibition (CellTiter-Meiluncell Luminescent Cell Viability Assay), SR; settings: Homo sapiens, 96 h, read-out: inhibitory activity (IC50, nM) against tumor cells proliferation, SR
[2] = molecular target: T2, human Cereblon WT GST-tagged protein (Homo sapiens, UniProt Q96SW2); experiment: CRBN-binding affinity by HTRF (CEREBLON BINDING kit); settings: HTRF inhibitory activity, CEREBLON BINDING kit; read-out: HTRF IC50
T2 construct: purchased CISBIO 64BDCRBNPEH
T2 sequence (Q96SW2 whole entry): as the sequence (Q96SW2 whole entry) above

MGC803 = experiment: Tumor cell proliferation inhibition (CellTiter-Meiluncell Luminescent Cell Viability Assay), MGC803; settings: Homo sapiens, MGC-803, 96 h, read-out: inhibitory activity (IC50, nM) against tumor cells proliferation, MGC803
IKZF3 = molecular target: T3, IKZF3 (Homo sapiens, UniProt Q96SW2+Q9UKT9); experiment: Western-blot assay of substrate protein degradation in hPBMCs, IKZF3; assay type: cell-based; settings: 24 hours of compound treatment, compounds tested at 50 nM and 500 nM (concentration of the table not stated)
T3 construct: endogenous in cells; host or cells: hPBMCs (Milecell Biotechnologies)
T3 sequence (Q9UKT9 whole entry): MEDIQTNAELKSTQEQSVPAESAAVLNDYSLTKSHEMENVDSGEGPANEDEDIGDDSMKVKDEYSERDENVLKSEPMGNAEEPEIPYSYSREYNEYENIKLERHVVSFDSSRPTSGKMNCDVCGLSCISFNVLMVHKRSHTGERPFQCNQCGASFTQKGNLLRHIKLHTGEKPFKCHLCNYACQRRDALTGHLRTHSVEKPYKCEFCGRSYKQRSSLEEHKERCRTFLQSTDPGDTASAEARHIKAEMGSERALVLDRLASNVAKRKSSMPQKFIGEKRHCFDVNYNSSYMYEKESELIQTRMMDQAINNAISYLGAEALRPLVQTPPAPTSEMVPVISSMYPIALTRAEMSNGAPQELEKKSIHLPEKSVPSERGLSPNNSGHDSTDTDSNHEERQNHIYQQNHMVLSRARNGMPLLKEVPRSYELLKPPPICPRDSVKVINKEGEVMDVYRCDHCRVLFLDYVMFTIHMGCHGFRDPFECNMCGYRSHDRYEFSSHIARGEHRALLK
T3 sequence (Q96SW2 whole entry): as the sequence (Q96SW2 whole entry) above
T3 sequence (Q16531 whole entry partner): as the sequence (Q16531 whole entry partner) above

NCI-H1975 = experiment: Tumor cell proliferation inhibition (CellTiter-Meiluncell Luminescent Cell Viability Assay), NCI-H1975; settings: Homo sapiens, NCI-H1975, 96 h, read-out: inhibitory activity (IC50, nM) against tumor cells proliferation, H1975
Jurkat = experiment: Tumor cell proliferation inhibition (CellTiter-Meiluncell Luminescent Cell Viability Assay), Jurkat; settings: Homo sapiens, 96 h, read-out: inhibitory activity (IC50, nM) against tumor cells proliferation, Jurkat
IKZF2 = molecular target: T4, IKZF2 (Homo sapiens, UniProt Q96SW2+Q9UKS7); experiment: Western-blot assay of substrate protein degradation in hPBMCs, IKZF2; assay type: cell-based; settings: 24 hours of compound treatment, compounds tested at 50 nM and 500 nM (concentration of the table not stated)
T4 construct: endogenous in cells; host or cells: hPBMCs (Milecell Biotechnologies)
T4 sequence (Q9UKS7 whole entry): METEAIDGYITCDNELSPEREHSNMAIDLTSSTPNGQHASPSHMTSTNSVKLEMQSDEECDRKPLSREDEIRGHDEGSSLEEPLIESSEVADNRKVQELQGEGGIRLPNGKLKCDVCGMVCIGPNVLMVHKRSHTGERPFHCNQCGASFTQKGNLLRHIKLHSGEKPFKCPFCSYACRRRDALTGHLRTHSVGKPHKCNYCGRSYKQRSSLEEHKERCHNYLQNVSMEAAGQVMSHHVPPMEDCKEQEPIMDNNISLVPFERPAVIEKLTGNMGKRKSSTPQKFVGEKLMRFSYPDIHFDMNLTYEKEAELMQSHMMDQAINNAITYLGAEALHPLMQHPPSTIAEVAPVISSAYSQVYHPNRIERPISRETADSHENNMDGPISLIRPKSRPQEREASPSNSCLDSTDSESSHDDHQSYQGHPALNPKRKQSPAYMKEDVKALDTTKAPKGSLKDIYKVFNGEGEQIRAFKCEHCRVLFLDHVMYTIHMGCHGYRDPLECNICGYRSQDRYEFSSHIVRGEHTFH
T4 sequence (Q96SW2 whole entry): as the sequence (Q96SW2 whole entry) above
T4 sequence (Q16531 whole entry partner): as the sequence (Q16531 whole entry partner) above

SW620 = experiment: Tumor cell proliferation inhibition (CellTiter-Meiluncell Luminescent Cell Viability Assay), SW620; settings: Homo sapiens, SW-620, 96 h, read-out: inhibitory activity (IC50, nM) against tumor cells proliferation, SW620
Vcap = experiment: Tumor cell proliferation inhibition (CellTiter-Meiluncell Luminescent Cell Viability Assay), Vcap; settings: Homo sapiens, 96 h, read-out: inhibitory activity (IC50, nM) against tumor cells proliferation, Vcap
IKZF1 = molecular target: T5, IKZF1 (Homo sapiens, UniProt Q13422+Q96SW2); experiment: Western-blot assay of substrate protein degradation in hPBMCs, IKZF1; assay type: cell-based; settings: 24 hours of compound treatment, compounds tested at 50 nM and 500 nM (concentration of the table not stated)
T5 construct: endogenous in cells; host or cells: hPBMCs (Milecell Biotechnologies)
T5 sequence (Q13422 whole entry): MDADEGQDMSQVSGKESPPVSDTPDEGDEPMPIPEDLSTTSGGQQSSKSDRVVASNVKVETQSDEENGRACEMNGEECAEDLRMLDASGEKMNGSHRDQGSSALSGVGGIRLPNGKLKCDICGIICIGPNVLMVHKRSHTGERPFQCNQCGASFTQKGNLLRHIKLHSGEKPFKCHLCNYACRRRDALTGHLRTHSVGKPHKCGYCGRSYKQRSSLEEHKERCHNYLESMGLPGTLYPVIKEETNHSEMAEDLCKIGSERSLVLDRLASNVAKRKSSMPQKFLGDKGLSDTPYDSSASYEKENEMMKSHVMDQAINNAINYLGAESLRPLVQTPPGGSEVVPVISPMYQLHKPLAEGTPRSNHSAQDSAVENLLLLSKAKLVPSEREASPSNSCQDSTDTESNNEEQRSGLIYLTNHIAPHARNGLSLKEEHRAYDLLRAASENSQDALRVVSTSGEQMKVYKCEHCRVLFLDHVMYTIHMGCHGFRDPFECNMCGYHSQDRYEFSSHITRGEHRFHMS
T5 sequence (Q96SW2 whole entry): as the sequence (Q96SW2 whole entry) above
T5 sequence (Q16531 whole entry partner): as the sequence (Q16531 whole entry partner) above

WEE1 = molecular target: T6, WEE1 (Homo sapiens, UniProt P30291+Q96SW2); experiment: Western-blot assay of substrate protein degradation in hPBMCs, WEE1; assay type: cell-based; settings: 24 hours of compound treatment, compounds tested at 50 nM and 500 nM (concentration of the table not stated)
T6 construct: endogenous in cells; host or cells: hPBMCs (Milecell Biotechnologies)
T6 sequence (P30291 whole entry): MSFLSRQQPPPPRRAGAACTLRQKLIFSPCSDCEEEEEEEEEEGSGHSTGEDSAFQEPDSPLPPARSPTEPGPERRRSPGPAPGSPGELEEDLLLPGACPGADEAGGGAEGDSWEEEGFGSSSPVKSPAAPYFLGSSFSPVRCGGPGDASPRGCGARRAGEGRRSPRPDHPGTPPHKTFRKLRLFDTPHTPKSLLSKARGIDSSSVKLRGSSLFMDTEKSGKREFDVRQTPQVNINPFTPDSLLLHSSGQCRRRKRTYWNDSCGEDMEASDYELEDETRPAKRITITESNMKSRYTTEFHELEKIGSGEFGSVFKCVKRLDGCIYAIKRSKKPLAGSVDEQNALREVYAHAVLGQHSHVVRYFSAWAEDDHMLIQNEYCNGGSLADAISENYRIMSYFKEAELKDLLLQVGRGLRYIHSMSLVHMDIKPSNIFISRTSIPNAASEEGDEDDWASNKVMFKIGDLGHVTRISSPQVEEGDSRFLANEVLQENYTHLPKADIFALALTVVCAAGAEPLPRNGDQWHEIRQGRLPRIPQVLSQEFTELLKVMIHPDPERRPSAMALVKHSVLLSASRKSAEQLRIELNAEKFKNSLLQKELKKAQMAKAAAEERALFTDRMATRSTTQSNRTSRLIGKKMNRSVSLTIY
T6 sequence (Q96SW2 whole entry): as the sequence (Q96SW2 whole entry) above
T6 sequence (Q16531 whole entry partner): as the sequence (Q16531 whole entry partner) above

GSPT1 = molecular target: T7, GSPT1 (Homo sapiens, UniProt P15170+Q96SW2); experiment: Western-blot assay of substrate protein degradation in hPBMCs, GSPT1; assay type: cell-based; settings: 24 hours of compound treatment, compounds tested at 50 nM and 500 nM (concentration of the table not stated)
T7 construct: endogenous in cells; host or cells: hPBMCs (Milecell Biotechnologies)

[3] = system: Human acute T lymphocytic leukemia cells (Molt-4); experiment: Tumor cell proliferation inhibition (CellTiter-Meiluncell Luminescent Cell Viability Assay), Molt-4; settings: MOLT-4, 96 h, read-out: inhibitory activity (IC50, nM) against tumor cells proliferation, Molt 4
Protocol: (§1) The tumor cells used herein were cultured in a cell culture medium listed in table 2 at 37°C in an incubator with 5% CO2. Prior to experimentation, all cell lines used were correctly identified by STR profiling, and tested negative for mycoplasma contamination using a mycoplasma detection kit through routine screenings.
(§2) On the following day, the test compounds of the present disclosure were subjected to serial dilution. […] Subsequently, 0.5 µL of the test compound dilution was transferred into the 96-well plate containing the cells, with each well containing 100 µL of cell culture medium. […] Into the 96-well plate, the diluted test compounds and corresponding detection reagents were added, resulting in final test compound concentrations of 500 nM and 10 nM, respectively. The experimental procedure is described below using the diluted 2 µM test compound as an example.
(§3) After the cells were treated with the compounds of the present disclosure for a specified period (the treatment durations were shown in Table 3), the cell viability assay reagent was added to the culture medium according to the kit's instructions to determine cell viability. […] All controls were treated using the same procedure as the compounds of the present disclosure. The growth inhibition curves for the compounds of the present disclosure were plotted using Prism GraphPad software, and the IC50 values were calculated therefrom.

CCRF-CEM = experiment: Tumor cell proliferation inhibition (CellTiter-Meiluncell Luminescent Cell Viability Assay), CCRF-CEM; settings: Homo sapiens, 96 h, read-out: inhibitory activity (IC50, nM) against tumor cells proliferation, CCRF-CEM
Protocol: as §1, §2, §3

MM.1R = experiment: Tumor cell proliferation inhibition (CellTiter-Meiluncell Luminescent Cell Viability Assay), MM.1R; settings: Homo sapiens, 96 h, read-out: inhibitory activity (IC50, nM) against tumor cells proliferation, MM.1R
Protocol: as §1, §2, §3

CAL-62 = experiment: Tumor cell proliferation inhibition (CellTiter-Meiluncell Luminescent Cell Viability Assay), CAL-62; settings: Homo sapiens, CAL-62, 96 h, read-out: inhibitory activity (IC50, nM) against tumor cells proliferation, CAL-62

Row | SMILES | CK1a substrate protein remaining % (CK1α) | IC50 [1] | IC50 (SR) | pIC50 [2] | IC50 (MGC803) | IKZF3 substrate protein remaining % (IKZF3) | IC50 (NCI-H1975) | IC50 (Jurkat) | IKZF2 substrate protein remaining % (IKZF2) | IC50 (SW620) | IC50 (Vcap) | IKZF 1 substrate protein remaining % (IKZF1) | Weel substrate protein remaining % (WEE1) | GSPT1 substrate protein remaining % (GSPT1) | IC50 [3] | IC50 (CCRF-CEM) | IC50 (MM.1R) | IC50 (CAL-62)
1 | O=C1CCC(N2Cc3cc(CN4CCN(c5cc(Cl)ccc5Cl)CC4)ccc3C2=O)C(=O)N1 (stereo not drawn) [GT-04487, 3-(5-((4-(2,5-dichlorophenyl)piperazin-1-yl)methyl)-1-oxoisoindolin-2-yl)piperidine-2,6-dione] | A (0% ≤ substrate protein remaining % ≤ 80%) | 100 to 500 nM | 100 to 500 nM | 6.00 to 6.30 | 50 to 100 nM | B (80%< substrate protein remaining %≤ 100%) | 50 to 100 nM | 5 to 10 nM | A (0% ≤ substrate protein remaining % ≤ 80%) | 100 to 500 nM | 10 to 50 nM | B (80%< substrate protein remaining %≤ 100%) | B (80%< substrate protein remaining %≤ 100%) | A (0% ≤ substrate protein remaining % ≤ 80%) | 5 to 10 nM | 5 to 10 nM | 10 to 50 nM | 10 to 50 nM
2 | Cc1cc(Cl)cc(N2CCN(Cc3ccc4c(c3)CN(C3CCC(=O)NC3=O)C4=O)CC2)n1 (stereo not drawn) [GT-04491, 3-(5-((4-(4-chloro-6-methylpyridin-2-yl)piperazin-1-yl)methyl)-1-oxoisoindolin-2-yl)piperidine-2,6-dione] | A (0% ≤ substrate protein remaining % ≤ 80%) | 100 to 500 nM | 100 to 500 nM | 6.00 to 6.30 | 500 to 1000 nM | B (80%< substrate protein remaining %≤ 100%) | 100 to 500 nM | 5 to 10 nM | A (0% ≤ substrate protein remaining % ≤ 80%) | 100 to 500 nM | 10 to 50 nM | B (80%< substrate protein remaining %≤ 100%) | B (80%< substrate protein remaining %≤ 100%) | A (0% ≤ substrate protein remaining % ≤ 80%) | 5 to 10 nM | 5 to 10 nM | 10 to 50 nM | 10 to 50 nM
3 | O=C1CCC(N2Cc3cc(CN4CC=C(c5cccs5)CC4)ccc3C2=O)C(=O)N1 (stereo not drawn) [GT-04494, 3-(1-oxo-5-((4-(thiophen-2-yl)-3,6-dihydropyridin-1(2H)-yl)methyl)isoindolin-2-yl)piperidine-2,6-dione] | A (0% ≤ substrate protein remaining % ≤ 80%) | 10 to 50 nM | 5 to 10 nM | > 6.30 | 10 to 50 nM | B (80%< substrate protein remaining %≤ 100%) | 10 to 50 nM | < 1 nM | A (0% ≤ substrate protein remaining % ≤ 80%) | 5 to 10 nM | 1 to 5 nM | B (80%< substrate protein remaining %≤ 100%) | A (0% ≤ substrate protein remaining % ≤ 80%) | A (0% ≤ substrate protein remaining % ≤ 80%) | 1 to 5 nM | 1 to 5 nM | < 1 nM | 1 to 5 nM
4 | O=C1CCC(N2Cc3cc(CN4CCN(c5cc(F)cc(F)c5)CC4)ccc3C2=O)C(=O)N1 (stereo not drawn) [GT-04496, 3-(5-((4-(3,5-difluorophenyl)piperazin-1-yl)methyl)-1-oxoisoindolin-2-yl)piperidine-2,6-dione] | A (0% ≤ substrate protein remaining % ≤ 80%) | 100 to 500 nM | 100 to 500 nM | 6.00 to 6.30 | 100 to 500 nM | B (80%< substrate protein remaining %≤ 100%) | 100 to 500 nM | 5 to 10 nM | A (0% ≤ substrate protein remaining % ≤ 80%) | 100 to 500 nM | 10 to 50 nM | B (80%< substrate protein remaining %≤ 100%) | B (80%< substrate protein remaining %≤ 100%) | A (0% ≤ substrate protein remaining % ≤ 80%) | 5 to 10 nM | 5 to 10 nM | 10 to 50 nM | 10 to 50 nM
